This assay deals with T1, HEK-Blue-hTLR9 cells (Homo sapiens, UniProt Q9NR96).
T1 construct: expressed in transfected cells; host or cells: HEK-Blue-hTLR9 cells (HEK293-derived reporter line)
T1 sequence (Q9NR96 26-1032): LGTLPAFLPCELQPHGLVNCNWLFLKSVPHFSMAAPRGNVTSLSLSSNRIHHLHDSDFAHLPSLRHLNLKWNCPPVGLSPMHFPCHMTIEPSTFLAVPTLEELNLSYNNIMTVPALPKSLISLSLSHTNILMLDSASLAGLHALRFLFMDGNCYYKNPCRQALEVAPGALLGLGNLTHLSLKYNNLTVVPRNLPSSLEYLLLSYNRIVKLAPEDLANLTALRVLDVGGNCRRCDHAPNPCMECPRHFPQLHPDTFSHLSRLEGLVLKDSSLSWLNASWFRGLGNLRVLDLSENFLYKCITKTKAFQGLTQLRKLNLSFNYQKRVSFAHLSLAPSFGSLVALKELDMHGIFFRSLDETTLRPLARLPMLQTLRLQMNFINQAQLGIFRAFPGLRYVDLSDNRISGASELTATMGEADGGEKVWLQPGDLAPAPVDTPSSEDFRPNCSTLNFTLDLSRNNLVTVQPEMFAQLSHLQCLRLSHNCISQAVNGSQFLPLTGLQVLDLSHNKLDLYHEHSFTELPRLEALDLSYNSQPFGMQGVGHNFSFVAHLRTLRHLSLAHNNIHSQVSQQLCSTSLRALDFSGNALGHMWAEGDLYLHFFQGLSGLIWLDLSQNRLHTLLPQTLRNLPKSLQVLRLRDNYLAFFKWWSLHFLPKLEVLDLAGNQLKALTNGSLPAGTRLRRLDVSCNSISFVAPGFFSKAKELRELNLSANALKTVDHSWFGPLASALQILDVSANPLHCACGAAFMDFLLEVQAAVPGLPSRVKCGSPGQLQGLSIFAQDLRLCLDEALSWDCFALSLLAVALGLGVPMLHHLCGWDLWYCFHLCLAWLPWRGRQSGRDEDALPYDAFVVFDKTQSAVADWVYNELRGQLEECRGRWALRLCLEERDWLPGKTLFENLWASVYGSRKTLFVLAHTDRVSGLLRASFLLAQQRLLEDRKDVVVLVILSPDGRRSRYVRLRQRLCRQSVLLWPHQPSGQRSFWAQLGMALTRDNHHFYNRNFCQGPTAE
The assay can be described thus: HEK-Blue-hTLR9 cell inhibition assay. It counts as cell-based. To be noted: ODN2006 1 µM, 16 h, OD 620 nm, read-out: TLR9 IC50. As for the experimental part:
HEK-Blue-hTLR7/8/9 cell inhibition assay
1. HEK-Blue-hTLR7/8 cells (1 × 10^4 cells/well) and HEK-Blue-hTLR9 cells (1.5 × 10^4 cells/well) were seeded in a 384-well cell culture plate, with a volume of 30 µL per well. The plate was incubated at 37°C in a 5% CO2 incubator for 4 h. 2. The compound was prepared with DMSO and diluted in DMEM medium to 10 concentrations (1:3 dilution), with final concentrations of 10000, 3333.3, 1111.1, 370.4, 123.5, 41.2, 13.7, 4.6, 1.5, and 0.5 nM; R848 was prepared with DMSO and diluted in DMEM medium, with final concentrations of 0.8 µM (HEK-Blue-hTLR7) and 3 µM (HEK-Blue-hTLR8); ODN2006 was prepared with endotoxin-free water and diluted in DMEM medium, with a final concentration of 1 µM. 3. Cells treated with DMSO were used as the blank control group, while cells treated solely with Resiquimod (R848) were used as the positive control group for HEK-Blue-hTLR7/8, and cells treated solely with ODN2006 were used as the positive control group for HEK-Blue-hTLR9. Cells treated with the test compound together with R848 or ODN2006 were used as the test group. Two parallel wells were set for each group and were placed at 37°C in a 5% CO2 incubator for incubation. 4. After being incubated for 4 h, the 384-well plate of HEK-Blue-hTLR7/8 was taken out from the incubator, and R848 alone or both R848 and the diluted compound were separately added into each well. The plate was placed at 37°C in a 5% CO2 incubator for incubation for 16 h; the 384-well plate of HEK-Blue-hTLR9 was taken out from the incubator, and ODN2006 alone or both ODN2006 and the diluted compound were added separately to each well. The plate was incubated at 37°C in a 5% CO2 incubator for 16 h. 5. After being incubated for 16 h, the 384-well plate was removed from the incubator and centrifuged at 1000 rpm for 1 minute. The optical density value of each well at 620 nm was measured using a multifunctional microplate reader. 6. The cell inhibition rate was calculated as (1-(OD620 test group-OD620 blank group)/(OD620 positive group-OD620 blank group))×100%, and the half maximal inhibitory concentration (IC50) was calculated through curve fitting. Table 1: Activity of the compounds of the present disclosure in HEK-Blue-hTLR7/8/9 cellular assays

As to `CN(C)Cc1nnc([C@]23CN(c4ccc(C#N)c5ncccc45)C[C@@]2(C(F)(F)F)C3)o1` [Compound 42, 5-((1S,5R)-1-(5-((dimethylamino)methyl)-1,3,4-oxadiazol-2-yl)-5-(trifluoromethyl)-3-azabicyclo[3.1.0]hexan-3-yl)quinoline-8-carbonitrile], the IC50 was more than 10 µM.
Next, `N#Cc1ccc(N2C[C@]3(c4nnc(CCN5CCOCC5)o4)C[C@]3(C(F)(F)F)C2)c2cccnc12` [Compound 43, 5-((1S,5R)-1-(5-(morpholinoethyl)-1,3,4-oxadiazol-2-yl)-5-(trifluoromethyl)-3-azabicyclo[3.1.0]hexan-3-yl)quinoline-8-carbonitrile]: more than 10 µM; `Cn1c(CN2CCCC2)nnc1[C@]12CN(c3ccc(C#N)c4ncccc34)C[C@@]1(C(F)(F)F)C2` [Compound 44, 5-((1S,5R)-1-(4-methyl-5-(pyrrolidin-1-ylmethyl)-4H-1,2,4-triazol-3-yl)-5-(trifluoromethyl)-3-azabicyclo[3.1.0]hexan-3-yl)quinoline-8-carbonitrile]: more than 10 µM; `N#Cc1ccc(N2C[C@]3(c4nnc(C5CNCC(F)C5)o4)C[C@]3(C(F)(F)F)C2)c2cccnc12` (stereo partly drawn) [Compound 45, 5-((1R,5S)-1-((difluoro-3-methyl)-12-fluoraneyl)-5-(5-(5-fluoropiperidin-3-yl)-1,3,4-oxadiazol-2-yl)-3-azabicyclo[3.1.0]hexan-3-yl)quinoline-8-carbonitrile]: more than 10 µM.
The value for `N#Cc1ccc(N2C[C@]3(c4nnc(C5(F)CCNC5)o4)C[C@]3(C(F)(F)F)C2)c2cccnc12` (stereo partly drawn) [Compound 46, 5-((1S,5R)-1-(5-(3-fluoropyrrolidin-3-yl)-1,3,4-oxadiazol-2-yl)-5-(trifluoromethyl)-3-azabicyclo[3.1.0]hexan-3-yl)quinoline-8-carbonitrile] was more than 10 µM; that for `CN1CCC(F)(c2nnc([C@]34CN(c5ccc(C#N)c6ncccc56)C[C@@]3(C(F)(F)F)C4)o2)C1` (stereo partly drawn) [Compound 47, 5-((1S,5R)-1-(5-(3-fluoro-1-methylpyrrolidin-3-yl)-1,3,4-oxadiazol-2-yl)-5-(trifluoromethyl)-3-azabicyclo[3.1.0]hexan-3-yl)quinoline-8-carbonitrile] was more than 10 µM; that for `CN1CC(F)(c2nnc([C@]34CN(c5ccc(C#N)c6ncccc56)C[C@@]3(C(F)(F)F)C4)o2)C1` [Compound 49, 5-((1S,5R)-1-(5-(3-fluoro-1-methylazetidin-3-yl)-1,3,4-oxadiazol-2-yl)-5-(trifluoromethyl)-3-azabicyclo[3.1.0]hexan-3-yl)quinoline-8-carbonitrile] was more than 10 µM.
Next, `CN1CCC(c2nnc([C@]34CN(c5ccc(C#N)c6ncccc56)C[C@@]3(C(F)(F)F)C4)o2)C(F)C1` (stereo partly drawn) [Compound 50, 5-((1S,5R)-1-(5-(3-fluoro-1-methylpiperidin-4-yl)-1,3,4-oxadiazol-2-yl)-5-(trifluoromethyl)-3-azabicyclo[3.1.0]hexan-3-yl)quinoline-8-carbonitrile]: more than 1 µM; `CN(C)CCc1nnc([C@]23CN(c4ccc(C#N)c5ncccc45)C[C@@]2(C(F)(F)F)C3)o1` [Compound 51, 5-((1S,5R)-1-(5-(2-(dimethylamino)ethyl)-1,3,4-oxadiazol-2-yl)-5-(trifluoromethyl)-3-azabicyclo[3.1.0]hexan-3-yl)quinoline-8-carbonitrile]: more than 10 µM; `N#Cc1ccc(N2C[C@]3(c4nnc(C56CCC(N)(CC5)CC6)o4)C[C@]3(C(F)(F)F)C2)c2cccnc12` [Compound 52, 5-((1S,5R)-1-(5-(4-aminobicyclo[2.2.2]octan-1-yl)-1,3,4-oxadiazol-2-yl)-5-(trifluoromethyl)-3-azabicyclo[3.1.0]hexan-3-yl)quinoline-8-carbonitrile]: less than 1 µM.
As for `CN(C)C12CCC(c3nnc([C@]45CN(c6ccc(C#N)c7ncccc67)C[C@@]4(C(F)(F)F)C5)o3)(CC1)CC2` [Compound 53, 5-((1S,5R)-1-(5-(4-(dimethylamino)bicyclo[2.2.2]octan-1-yl)-1,3,4-oxadiazol-2-yl)-5-(trifluoromethyl)-3-azabicyclo[3.1.0]hexan-3-yl)quinoline-8-carbonitrile], the IC50 is more than 1 µM.
Take `N#Cc1ccc(N2C[C@]3(c4nnc(C56CCC(NC(=O)[C@@H]7COCCN7)(CC5)CC6)o4)C[C@]3(C(F)(F)F)C2)c2cccnc12` [Compound 54, (S)-N-(4-(5-((1S,5R)-3-(8-cyanoquinolin-5-yl)-5-(trifluoromethyl)-3-azabicyclo[3.1.0]hexan-1-yl)-1,3,4-oxadiazol-2-yl)bicyclo[2.2.2]octan-1-yl)morpholine-3-carboxamide]: the IC50 was more than 1 µM.
The value for `N#Cc1ccc(N2C[C@]3(c4nnc([C@H]5CN(CC(N)=O)CCO5)o4)C[C@]3(C(F)(F)F)C2)c2cccnc12` [Compound 56, 2-((R)-2-(5-((1S,5R)-3-(8-cyanoquinolin-5-yl)-5-(trifluoromethyl)-3-azabicyclo[3.1.0]hexan-1-yl)-1,3,4-oxadiazol-2-yl)morpholino)acetamide] was more than 10 µM; that for `CN1CCC(c2nnc([C@]34CN(c5ccc(C#N)n6ncc(F)c56)C[C@@]3(C(F)(F)F)C4)o2)CC1` [Compound 57, 3-fluoro-4-((1S,5R)-1-(5-(1-methylpiperidin-4-yl)-1,3,4-oxadiazol-2-yl)-5-(trifluoromethyl)-3-azabicyclo[3.1.0]hexan-3-yl)pyrazolo[1,5-a]pyridine-7-carbonitrile] was more than 1 µM; that for `CN1CCC(c2nnc([C@]34CN(c5ccc(C#N)n6nccc56)C[C@@]3(C(F)(F)F)C4)o2)CC1` [Compound 59, 4-((1S,5R)-1-(5-(1-methylpiperidin-4-yl)-1,3,4-oxadiazol-2-yl)-5-(trifluoromethyl)-3-azabicyclo[3.1.0]hexan-3-yl)pyrazolo[1,5-a]pyridine-7-carbonitrile] was more than 1 µM.
For the compound `N#Cc1ccc(N2C[C@]3(c4nnc(C5(F)CCNCC5)o4)C[C@]3(C(F)(F)F)C2)c2cccnc12` [Compound 60, 5-((1S,5R)-1-(5-(4-fluoropiperidin-4-yl)-1,3,4-oxadiazol-2-yl)-5-(trifluoromethyl)-3-azabicyclo[3.1.0]hexan-3-yl)quinoline-8-carbonitrile], the IC50 is less than 1 µM.
The value for `COc1ccc(N2C[C@]3(c4nnc(C5CCN(C)CC5)o4)C[C@]3(C(F)(F)F)C2)c2cccnc12` [Compound 66, 2-((1S,5R)-3-(8-methoxyquinolin-5-yl)-5-(trifluoromethyl)-3-azabicyclo[3.1.0]hexan-1-yl)-5-(1-methylpiperidin-4-yl)-1,3,4-oxadiazole] was more than 1 µM.
Next, `CN1CCC(n2cc([C@]34CN(c5ccc(C#N)c6ncccc56)C[C@@]3(C(F)(F)F)C4)nn2)CC1` [Compound 71, 5-((1S,5R)-1-(1-(1-methylpiperidin-4-yl)-1H-1,2,3-triazol-4-yl)-5-(trifluoromethyl)-3-azabicyclo[3.1.0]hexan-3-yl)quinoline-8-carbonitrile]: more than 1 µM.

These data come from EP4806891A1 (Kangbaida (Sichuan) Biotechnology Co., Ltd., priority 2023, dated 2025).
